For 27 compounds, IC50 results are on record in patent US9611264B1, “N-[2-(3-amino-2,5-dimethyl-1,1-dioxido-5,6-dihydro-2H-1,2,4-thiadiazin-5-yl)-1,3-thiazol-4-yl] amides” (Pfizer Inc., priority 2015, dated 2017).

Molecules are shown by their SMILES. pIC50: −log10 of the molar value. Counter-ions that a name gives are not always drawn.

The target of this assay is T1, BACE1 enzyme (Homo sapiens, UniProt P56817).
T1 construct: transfected with a soluble BACE construct (BACE1deltaTM96His); His (C); made in house; host or cells: CHO-K1 cells (secreted into conditioned media)
T1 sequence (P56817 46-457 limits assumed): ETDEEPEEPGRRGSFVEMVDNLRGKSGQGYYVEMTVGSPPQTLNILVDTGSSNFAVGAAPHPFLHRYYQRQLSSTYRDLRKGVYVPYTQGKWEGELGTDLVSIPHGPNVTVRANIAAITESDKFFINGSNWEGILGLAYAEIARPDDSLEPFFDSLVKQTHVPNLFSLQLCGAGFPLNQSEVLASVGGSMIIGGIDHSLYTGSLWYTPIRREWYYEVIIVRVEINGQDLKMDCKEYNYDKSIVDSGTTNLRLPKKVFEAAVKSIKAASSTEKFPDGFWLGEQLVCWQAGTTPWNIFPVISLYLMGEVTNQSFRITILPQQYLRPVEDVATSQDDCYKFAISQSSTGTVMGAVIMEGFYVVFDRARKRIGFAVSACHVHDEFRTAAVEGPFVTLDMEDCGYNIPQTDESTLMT
Description: BACE1 Cell-Free Assay (fluorescence polarization, cleavage of synthetic APP substrate). Format: biochemical. The following applies: geometric mean of 2-4 determinations unless otherwise indicated (b: ≧5 determinations; c: single determination); 0.1 nM BACE1, 150 nM peptide substrate, pH 4.5, 3 hours at 37° C. An excerpt:
Beta-secretase (BACE) is one of the enzymes involved in the generation of the amyloid beta peptide found in the amyloid plaques of Alzheimer's disease patients. This assay measures the inhibition of the beta-secretase enzyme as it cleaves a non-native peptide.
A synthetic APP substrate that can be cleaved by beta-secretase having N-terminal biotin and made fluorescent by the covalent attachment of Oregon Green at the Cys residue is used to assay beta-secretase activity in the presence or absence of the inhibitory compounds. The substrate is Biotin-GLTNIKTEEISEISY^EVEFR-C[Oregon Green]KK-OH. The BACE1 enzyme is affinity purified material from conditioned media of CHO-K1 cells that have been transfected with a soluble BACE construct (BACE1deltaTM96His). Compounds are incubated in a ½ log dose response curve from a top concentration of 100 μM with BACE1 enzyme and the biotinylated fluorescent peptide in 384-well black plates (Thermo Scientific #4318). BACE1 is at a final concentration of 0.1 nM with a final concentration of peptide substrate of 150 nM in a reaction volume of 30 μL assay buffer [100 mM sodium acetate, pH 4.5 (brought to pH with acetic acid), and 0.001% Tween-20]. Plates are covered and incubated for 3 hours at 37° C. The reaction is stopped with the addition of 30 μL of 1.5 μM Streptavidin (Pierce, #21125). After a 10 minute incubation at room temperature, plates are read on a PerkinElmer EnVision for fluorescence polarization (Ex485 nm/Em530 nm). The activity of the beta-secretase enzyme is detected by changes in the fluorescence polarization that occur when the substrate is cleaved by the enzyme.
A general note: In fluorescence polarisation assays a small probe gives low polarisation when free and higher when bound to something large.
As usually defined, the pIC50 is the negative decadic logarithm of the IC50, by convention in mol/L. In the case of `CN1C(N)=N[C@@](C)(c2nc(NC(=O)c3ccc(OC(F)F)cn3)cs2)[C@H](C2CC2)S1(=O)=O` (single isomer, unassigned) [Example 3], the pIC50 is 4.51.

The compound `CN1C(N)=N[C@](C)(c2nc(NC(=O)c3ccc(OC(F)F)cn3)cs2)[C@@H](C2CC2)S1(=O)=O` (single isomer, unassigned) [Example 4] gave a pIC50 of 6.99.

`CN1C(N)=N[C@](C)(c2nc(NC(=O)c3ccc(OC(F)F)cn3)cs2)[C@H](C2CC2)S1(=O)=O` (single isomer, unassigned) [Example 5]: the negative-log IC50 (pIC50) is 7.29.

`CN1C(N)=N[C@@](C)(c2nc(NC(=O)c3ccc(OC(F)F)cn3)cs2)C(C)(C)S1(=O)=O` (single isomer, unassigned) [Example 7]: the pIC50 was 5.36.

In turn, `CN1C(N)=N[C@](C)(c2nc(NC(=O)c3ccc(OC(F)F)cn3)cs2)C(C)(C)S1(=O)=O` (single isomer, unassigned) [Example 8] gave a pIC50 of 7.11.

Regarding `C[C@H]1[C@](C)(c2nc(NC(=O)c3ccc(OC(F)F)cn3)cs2)N=C(N)N(C)S1(=O)=O` (single isomer, unassigned) [Example 10], the pIC50 is 4.74.

`C[C@@H]1[C@@](C)(c2nc(NC(=O)c3ccc(OC(F)F)cn3)cs2)N=C(N)N(C)S1(=O)=O` (single isomer, unassigned) [Example 11] gave a pIC50 of 6.87.

The compound `C[C@H]1[C@@](C)(c2nc(NC(=O)c3ccc(OC(F)F)cn3)cs2)N=C(N)N(C)S1(=O)=O` (single isomer, unassigned) [Example 12] gave a pIC50 of 7.06.

On to `C[C@@H]1[C@](C)(c2nc(NC(=O)c3ccc(OC(F)F)cn3)cs2)N=C(N)N(C)S1(=O)=O` (single isomer, unassigned) [Example 13], for which the pIC50 was 4.47.

The compound `CN1C(N)=N[C@](C)(c2nc(NC(=O)c3ccc(OC(F)F)cn3)cs2)CS1(=O)=O` [Example 1, N-{2-[(5S)-3-amino-2,5-dimethyl-1,1-dioxido-5,6-dihydro-2H-1,2,4-thiadiazin-5-yl]-1,3-thiazol-4-yl}-5-(difluoromethoxy)pyridine-2-carboxamide] gave a pIC50 of 7.22.

Take `CN1C(N)=N[C@](C)(c2nc(NC(=O)c3ccn(C(F)F)n3)cs2)CS1(=O)=O` [Example 2, N-{2-[(5S)-3-amino-2,5-dimethyl-1,1-dioxido-5,6-dihydro-2H-1,2,4-thiadiazin-5-yl]-1,3-thiazol-4-yl}-1-(difluoromethyl)-1H-pyrazole-3-carboxamide]: the pIC50 was 7.72.

Consider `CN1C(N)=NC(C)(c2nc(NC(=O)c3ccc(OC(F)F)cn3)cs2)C(C)(C)S1(=O)=O` (stereo not drawn) [Example 6, N-[2-(3-amino-2,5,6,6-tetramethyl-1,1-dioxido-5,6-dihydro-2H-1,2,4-thiadiazin-5-yl)-1,3-thiazol-4-yl]-5-(difluoromethoxy)pyridine-2-carboxamide], for which the pIC50 is 6.73.

For `Cc1cc(OC(F)F)cnc1C(=O)Nc1csc([C@]2(C)CS(=O)(=O)N(C)C(N)=N2)n1` [Example 9, N-{2-[(5S)-3-amino-2,5-dimethyl-1,1-dioxido-5,6-dihydro-2H-1,2,4-thiadiazin-5-yl]-1,3-thiazol-4-yl}-5-(difluoromethoxy)-3-methylpyridine-2-carboxamide, methanesulfonic acid salt], the pIC50 was 7.54.

For the compound `CC[C@H]1[C@](C)(c2nc(NC(=O)c3ccc(OC(F)F)cn3)cs2)N=C(N)N(C)S1(=O)=O` [Example 14, N-{2-[(5R,6S)-3-amino-6-ethyl-2,5-dimethyl-1,1-dioxido-5,6-dihydro-2H-1,2,4-thiadiazin-5-yl]-1,3-thiazol-4-yl}-5-(difluoromethoxy)pyridine-2-carboxamide], the pIC50 is 4.85.

`CC[C@@H]1[C@@](C)(c2nc(NC(=O)c3ccc(OC(F)F)cn3)cs2)N=C(N)N(C)S1(=O)=O` [Example 15, N-{2-[(5S,6R)-3-amino-6-ethyl-2,5-dimethyl-1,1-dioxido-5,6-dihydro-2H-1,2,4-thiadiazin-5-yl]-1,3-thiazol-4-yl}-5-(difluoromethoxy)pyridine-2-carboxamide] gave a pIC50 of 6.43.

Consider `CC[C@@H]1[C@](C)(c2nc(NC(=O)c3ccc(OC(F)F)cn3)cs2)N=C(N)N(C)S1(=O)=O` [Example 16, N-{2-[(5R,6R)-3-amino-6-ethyl-2,5-dimethyl-1,1-dioxido-5,6-dihydro-2H-1,2,4-thiadiazin-5-yl]-1,3-thiazol-4-yl}-5-(difluoromethoxy)pyridine-2-carboxamide], for which the pIC50 is 5.41.

As for `CC[C@H]1[C@@](C)(c2nc(NC(=O)c3ccc(OC(F)F)cn3)cs2)N=C(N)N(C)S1(=O)=O` [Example 17, N-{2-[(5S,6S)-3-amino-6-ethyl-2,5-dimethyl-1,1-dioxido-5,6-dihydro-2H-1,2,4-thiadiazin-5-yl]-1,3-thiazol-4-yl}-5-(difluoromethoxy)pyridine-2-carboxamide], the pIC50 was 6.70.

In turn, `CN1C(N)=N[C@](C)(c2nc(NC(=O)c3cnc(CF)cn3)cs2)CS1(=O)=O` [Example 18, N-{2-[(5S)-3-amino-2,5-dimethyl-1,1-dioxido-5,6-dihydro-2H-1,2,4-thiadiazin-5-yl]-1,3-thiazol-4-yl}-5-(fluoromethyl)pyrazine-2-carboxamide] showed a negative logarithm of the IC50 (pIC50) of 6.61.

With `CN1C(N)=N[C@](C)(c2nc(NC(=O)c3cnc(C(F)F)cn3)cs2)CS1(=O)=O` [Example 19, N-{2-[(5S)-3-amino-2,5-dimethyl-1,1-dioxido-5,6-dihydro-2H-1,2,4-thiadiazin-5-yl]-1,3-thiazol-4-yl}-5-(difluoromethyl)pyrazine-2-carboxamide], the pIC50 is 6.76.

In turn, `CN1C(N)=N[C@](C)(c2nc(NC(=O)c3ccc(Cl)cn3)cs2)CS1(=O)=O` [Example 20, N-{2-[(5S)-3-amino-2,5-dimethyl-1,1-dioxido-5,6-dihydro-2H-1,2,4-thiadiazin-5-yl]-1,3-thiazol-4-yl}-5-chloropyridine-2-carboxamide] showed a pIC50 of 7.38.

The compound `CN1C(N)=N[C@](C)(c2nc(NC(=O)c3coc(CF)n3)cs2)CS1(=O)=O` [Example 21, N-{2-[(5S)-3-amino-2,5-dimethyl-1,1-dioxido-5,6-dihydro-2H-1,2,4-thiadiazin-5-yl]-1,3-thiazol-4-yl}-2-(fluoromethyl)-1,3-oxazole-4-carboxamide] showed a pIC50 of 7.96.

As to `CN1C(N)=N[C@](C)(c2nc(NC(=O)c3cnc(OCC(C)(F)F)cn3)cs2)CS1(=O)=O` [Example 22, N-{2-[(5S)-3-amino-2,5-dimethyl-1,1-dioxido-5,6-dihydro-2H-1,2,4-thiadiazin-5-yl]-1,3-thiazol-4-yl}-5-(2,2-difluoropropoxy)pyrazine-2-carboxamide], the pIC50 is 6.87.

The compound `CC#CCOc1cnc(C(=O)Nc2csc([C@]3(C)CS(=O)(=O)N(C)C(N)=N3)n2)cn1` [Example 23, N-{2-[(5S)-3-amino-2,5-dimethyl-1,1-dioxido-5,6-dihydro-2H-1,2,4-thiadiazin-5-yl]-1,3-thiazol-4-yl}-5-(but-2-yn-1-yloxy)pyrazine-2-carboxamide] had a pIC50 of 7.89.

On to `CC#CCOc1ccc(C(=O)Nc2csc([C@]3(C)CS(=O)(=O)N(C)C(N)=N3)n2)nc1` [Example 24, N-{2-[(5S)-3-amino-2,5-dimethyl-1,1-dioxido-5,6-dihydro-2H-1,2,4-thiadiazin-5-yl]-1,3-thiazol-4-yl}-5-(but-2-yn-1-yloxy)pyridine-2-carboxamide], for which the pIC50 is 7.89.

In turn, `CN1C(N)=N[C@](C)(c2nc(NC(=O)c3ncc(OC(F)F)cc3Cl)cs2)CS1(=O)=O` [Example 25, N-{2-[(5S)-3-amino-2,5-dimethyl-1,1-dioxido-5,6-dihydro-2H-1,2,4-thiadiazin-5-yl]-1,3-thiazol-4-yl}-3-chloro-5-(difluoromethoxy)pyridine-2-carboxamide] showed a pIC50 of 7.64.

For the compound `CN1C(N)=N[C@](C)(c2nc(NC(=O)c3ccc(C#N)cn3)cs2)CS1(=O)=O` [Example 26, N-{2-[(5S)-3-amino-2,5-dimethyl-1,1-dioxido-5,6-dihydro-2H-1,2,4-thiadiazin-5-yl]-1,3-thiazol-4-yl}-5-cyanopyridine-2-carboxamide], the pIC50 is 7.35.

For the compound `Cc1cc(C#N)cnc1C(=O)Nc1csc([C@]2(C)CS(=O)(=O)N(C)C(N)=N2)n1` [Example 27, N-{2-[(5S)-3-amino-2,5-dimethyl-1,1-dioxido-5,6-dihydro-2H-1,2,4-thiadiazin-5-yl]-1,3-thiazol-4-yl}-5-cyano-3-methylpyridine-2-carboxamide], the pIC50 is 8.05.
